This note sets out measurements from patent publication US8138189B2, “Substituted benzene compounds as modulators of the glucocorticoid receptor” (Hoffman-La Roche Inc., priority 2009, dated 2012).

As usually defined, the Ki is a measure of affinity in units of concentration, obtained from inhibition or displacement.

In this test the target is T1, full length human recombinant glucocorticoid receptor (Homo sapiens, UniProt P04150).
T1 construct: partially purified full length human recombinant glucocorticoid receptor; purchased Panvera/Invitrogen PV4302
T1 sequence (P04150 1-777): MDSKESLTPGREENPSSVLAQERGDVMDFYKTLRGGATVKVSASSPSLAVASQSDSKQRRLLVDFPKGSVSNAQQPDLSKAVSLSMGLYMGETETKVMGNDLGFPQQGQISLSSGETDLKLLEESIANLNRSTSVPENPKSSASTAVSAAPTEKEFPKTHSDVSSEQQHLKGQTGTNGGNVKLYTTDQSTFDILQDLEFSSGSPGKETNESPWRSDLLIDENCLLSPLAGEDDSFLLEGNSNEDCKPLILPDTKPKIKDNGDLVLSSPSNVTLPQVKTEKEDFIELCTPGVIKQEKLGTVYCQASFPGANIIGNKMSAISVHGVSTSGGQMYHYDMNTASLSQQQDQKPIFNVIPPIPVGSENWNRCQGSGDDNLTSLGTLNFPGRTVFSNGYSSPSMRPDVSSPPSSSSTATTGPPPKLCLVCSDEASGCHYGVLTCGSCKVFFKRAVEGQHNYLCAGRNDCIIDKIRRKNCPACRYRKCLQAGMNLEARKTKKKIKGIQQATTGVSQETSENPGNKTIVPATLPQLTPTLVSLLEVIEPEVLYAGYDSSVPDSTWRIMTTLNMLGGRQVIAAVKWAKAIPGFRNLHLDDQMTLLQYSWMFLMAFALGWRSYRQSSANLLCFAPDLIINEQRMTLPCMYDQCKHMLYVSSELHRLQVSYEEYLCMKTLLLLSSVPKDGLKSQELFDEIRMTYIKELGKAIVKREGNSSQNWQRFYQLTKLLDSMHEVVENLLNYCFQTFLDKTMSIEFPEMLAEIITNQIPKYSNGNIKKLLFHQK
Kind of test: Glucocorticoid Receptor Binding Assay (fluorescence polarization competitor assay, Fluormone GS Far Red tracer). A digest of the protocol: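 Partially purified full-length recombinant human GR with a stabilizing coactivator peptide was incubated with Fluormone GS Far Red tracer and serially diluted compound for 3 h at 22 °C in the dark, pH 7.4. Fluorescence polarization was read at 610-660 nm. IC50 came from sigmoidal fitting, and Ki from Cheng-Prusoff.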
(Fluorescence polarisation rises when a labelled molecule tumbles more slowly, as on binding a larger partner.)
Consider `Cc1cc([C@](O)([C@H](C)c2ccc(OCc3cnn(CC(=O)O)c3)cc2Cl)C(F)(F)F)ccn1` (stereo in doubt) [Example 103, (4-{3-Chloro-4-[3,3,3-trifluoro-2-hydroxy-1-methyl-2-(2-methyl-pyridin-4-yl)-propyl]-phenoxymethyl}-pyrazol-1-yl)-acetic acid], for which the Ki stood at 68.3 nM. On to `COC(=O)c1cnc(OCc2ccc([C@@H](C)[C@@](O)(c3ccnc(Cl)c3)C(F)(F)F)c(Cl)c2)cn1` (stereo in doubt) [Example 120, 5-{3-Chloro-4-[2-(2-chloro-pyridin-4-yl)-3,3,3-trifluoro-2-hydroxy-1-methyl-propyl]-benzyloxy}-pyrazine-2-carboxylic acid methyl ester], for which the inhibitory constant (Ki) amounted to 9.7 nM. Next, `C[C@H](c1ccc(COc2cnc(C(=O)O)cn2)cc1Cl)[C@@](O)(c1ccnc(Cl)c1)C(F)(F)F` (stereo in doubt) [Example 121, 5-{3-Chloro-4-[2-(2-chloro-pyridin-4-yl)-3,3,3-trifluoro-2-hydroxy-1-methyl-propyl]-benzyloxy}-pyrazine-2-carboxylic acid]: 18.8 nM; `COC(=O)c1ccc(OCc2ccc([C@@H](C)[C@@](O)(c3ccnc(Cl)c3)C(F)(F)F)c(Cl)c2)nn1` (stereo in doubt) [Example 122, 6-{3-Chloro-4-[2-(2-chloro-pyridin-4-yl)-3,3,3-trifluoro-2-hydroxy-1-methyl-propyl]-benzyloxy}-pyridazine-3-carboxylic acid methyl ester]: 10.7 nM; `C[C@H](c1ccc(COc2ccc(C(=O)O)nn2)cc1Cl)[C@@](O)(c1ccnc(Cl)c1)C(F)(F)F` (stereo in doubt) [Example 123, 6-{3-Chloro-4-[2-(2-chloro-pyridin-4-yl)-3,3,3-trifluoro-2-hydroxy-1-methyl-propyl]-benzyloxy}-pyridazine-3-carboxylic acid]: 34.3 nM. Next, `COC(=O)c1cnc(OCc2ccc([C@@H](C)[C@@](O)(c3ccnc(Cl)c3)C(F)(F)F)c(Cl)c2)nc1` (stereo in doubt) [Example 124, 2-{3-Chloro-4-[2-(2-chloro-pyridin-4-yl)-3,3,3-trifluoro-2-hydroxy-1-methyl-propyl]-benzyloxy}-pyrimidine-5-carboxylic acid methyl ester]: 8.8 nM; `C[C@H](c1ccc(COc2ncc(C(=O)O)cn2)cc1Cl)[C@@](O)(c1ccnc(Cl)c1)C(F)(F)F` (stereo in doubt) [Example 125, 2-{3-Chloro-4-[2-(2-chloro-pyridin-4-yl)-3,3,3-trifluoro-2-hydroxy-1-methyl-propyl]-benzyloxy}-pyrimidine-5-carboxylic acid]: 24.7 nM. Next, `COC(=O)c1ccc(OCc2ccc([C@@H](C)[C@@](O)(c3ccnc(Cl)c3)C(F)(F)F)c(Cl)c2)nc1` (stereo in doubt) [Example 126, 6-{3-Chloro-4-[2-(2-chloro-pyridin-4-yl)-3,3,3-trifluoro-2-hydroxy-1-methyl-propyl]-benzyloxy}-nicotinic acid methyl ester]: 8.5 nM.

Regarding `C[C@H](c1cc(Oc2cnc(C(=O)O)cn2)ccc1Cl)[C@@](O)(c1ccnc(Cl)c1)C(F)(F)F` (stereo in doubt) [Example 137, 5-{4-Chloro-3-[2-(2-chloro-pyridin-4-yl)-3,3,3-trifluoro-2-hydroxy-1-methyl-propyl]-phenoxy}-pyrazine-2-carboxylic acid], the inhibitory constant (Ki) was 1580 nM. Next, `C[C@H](c1cc(Oc2ccc(C(=O)O)nn2)ccc1Cl)[C@@](O)(c1ccnc(Cl)c1)C(F)(F)F` (stereo in doubt) [Example 139, 6-{4-Chloro-3-[2-(2-chloro-pyridin-4-yl)-3,3,3-trifluoro-2-hydroxy-1-methyl-propyl]-phenoxy}-pyridazine-3-carboxylic acid]: 404 nM. For `C[C@@H](c1ccc(OCc2ccc(C(=O)O)cc2)cc1Cl)[C@](O)(c1cnc2ccccc2c1)C(F)(F)F` (stereo in doubt) [Example 141, 4-[3-Chloro-4-(3,3,3-trifluoro-2-hydroxy-1-methyl-2-quinolin-3-yl-propyl)-phenoxymethyl]-benzoic acid] the value was 1.5 nM. Turning to `COC(=O)C1(c2ccc(COc3ccc([C@H](C)[C@](O)(c4cnc5ccccc5c4)C(F)(F)F)c(Cl)c3)cc2)CC1` (stereo in doubt) [Example 142, 1-{4-[3-Chloro-4-(3,3,3-trifluoro-2-hydroxy-1-methyl-2-quinolin-3-yl-propyl)-phenoxymethyl]-phenyl}-cyclopropanecarboxylic acid methyl ester], the inhibition constant (Ki) is 6.6 nM. On to `C[C@@H](c1ccc(OCc2ccc(C3(C(=O)O)CC3)cc2)cc1Cl)[C@](O)(c1cnc2ccccc2c1)C(F)(F)F` (stereo in doubt) [Example 143, 1-{4-[3-Chloro-4-(3,3,3-trifluoro-2-hydroxy-1-methyl-2-quinolin-3-yl-propyl)-phenoxymethyl]-phenyl}-cyclopropanecarboxylic acid], for which the Ki came to 4.6 nM. For `COC(=O)Cc1ccc(COc2ccc([C@H](C)[C@](O)(c3cnc4ccccc4c3)C(F)(F)F)c(Cl)c2)cc1` (stereo in doubt) [Example 144, {4-[3-Chloro-4-(3,3,3-trifluoro-2-hydroxy-1-methyl-2-quinolin-3-yl-propyl)-phenoxymethyl]-phenyl}-acetic acid methyl ester] the value was 3.6 nM; for `C[C@@H](c1ccc(OCc2ccc(C(=O)O)cc2)cc1Cl)[C@](O)(c1cccc2cnccc12)C(F)(F)F` (stereo in doubt) [Example 148, 4-[3-Chloro-4-(3,3,3-trifluoro-2-hydroxy-2-isoquinolin-5-yl-1-methyl-propyl)-phenoxymethyl]-benzoic acid], 1.3 nM; for `C[C@@H](c1ccc(OCc2ccc(CC(=O)O)cc2)cc1Cl)[C@](O)(c1cccc2cnccc12)C(F)(F)F` (stereo in doubt) [Example 149, {4-[3-Chloro-4-(3,3,3-trifluoro-2-hydroxy-2-isoquinolin-5-yl-1-methyl-propyl)-phenoxymethyl]-phenyl}-acetic acid], 1.8 nM. Next, `C[C@@H](c1ccc(-c2ccc(C(=O)O)c(F)c2)cc1Cl)[C@](O)(c1cccc2cnccc12)C(F)(F)F` (stereo in doubt) [Example 150, 3′-Chloro-3-fluoro-4′-(3,3,3-trifluoro-2-hydroxy-2-isoquinolin-5-yl-1-methyl-propyl)-biphenyl-4-carboxylic acid]: 9.5 nM; `C[C@H](c1ccc(Oc2ccc(C(=O)O)cc2)cc1Cl)[C@@](O)(c1ccc(=O)n(C)c1)C(F)(F)F` (stereo in doubt) [Example 152, 4-{3-Chloro-4-[3,3,3-trifluoro-2-hydroxy-1-methyl-2-(1-methyl-6-oxo-1,6-dihydro-pyridin-3-yl)-propyl]-phenoxy}-benzoic acid]: 3.3 nM.

Regarding `COC(=O)c1ccc(Oc2ccc([C@@H](C)[C@@](O)(c3ccc(=O)n(C)c3)C(F)(F)F)c(Cl)c2)cc1Cl` (stereo in doubt) [Example 153, 2-Chloro-4-{3-chloro-4-[3,3,3-trifluoro-2-hydroxy-1-methyl-2-(1-methyl-6-oxo-1,6-dihydro-pyridin-3-yl)-propyl]-phenoxy}-benzoic acid methyl ester], the inhibition constant (Ki) was found to be 4.9 nM. As for `C[C@H](c1ccc(Oc2ccc(C(=O)O)c(Cl)c2)cc1Cl)[C@@](O)(c1ccc(=O)n(C)c1)C(F)(F)F` (stereo in doubt) [Example 154, 2-Chloro-4-{3-chloro-4-[3,3,3-trifluoro-2-hydroxy-1-methyl-2-(1-methyl-6-oxo-1,6-dihydro-pyridin-3-yl)-propyl]-phenoxy}-benzoic acid], the inhibition constant (Ki) was found to be 6.3 nM. With `C[C@H](c1ccc(Oc2ccc(C(=O)O)c(F)c2)cc1Cl)[C@@](O)(c1ccc(=O)n(C)c1)C(F)(F)F` (stereo in doubt) [Example 155, 4-{3-Chloro-4-[3,3,3-trifluoro-2-hydroxy-1-methyl-2-(1-methyl-6-oxo-1,6-dihydro-pyridin-3-yl)-propyl]-phenoxy}-2-fluoro-benzoic acid], the Ki came out at 46.2 nM.

With `C[C@H](c1ccc(Oc2ccc(CC(=O)O)cc2)cc1Cl)[C@@](O)(c1ccc(=O)n(C)c1)C(F)(F)F` (stereo in doubt) [Example 158, (4-{3-Chloro-4-[3,3,3-trifluoro-2-hydroxy-1-methyl-2-(1-methyl-6-oxo-1,6-dihydro-pyridin-3-yl)-propyl]-phenoxy}-phenyl)-acetic acid], the Ki stood at 7.1 nM. Next, `CCOC(=O)COc1cc(Oc2ccc([C@@H](C)[C@@](O)(c3ccc(=O)n(C)c3)C(F)(F)F)c(Cl)c2)ccc1F` (stereo in doubt) [Example 161, (5-{3-Chloro-4-[3,3,3-trifluoro-2-hydroxy-1-methyl-2-(1-methyl-6-oxo-1,6-dihydro-pyridin-3-yl)-propyl]-phenoxy}-2-fluoro-phenoxy)-acetic acid ethyl ester]: 3.1 nM.
